Laboratory results published in paper PMC8217813, “Bridging Computational Vaccinology and Vaccine Development Through Systematic Identification, Characterization, and Downselection of Conserved and Variable Circumsporozoite Protein CD4 T Cell Epitopes From Diverse Plasmodium falciparum Strains” (Frontiers in Immunology, 2021).
Peptide text beside a SMILES is read from it.

Target: T1, HLA A*2402 (Homo sapiens, UniProt P04439, D101N/D140Y/D185E/E176V/E190D/F33S/G103R/G107R/I119L/I121M/I306V/K335N/L105A/L180Q/L300P/N151K/N90K/Q86E/Q94H/R106L/R138H/R89G/T104I/T345S/V100E/W191G/Y123F)
T1 construct: Pure Protein, LLC (ran the assay)
Assay: In vitro class I HLA binding competition assay (fluorescence polarization)
Conditions: allele A2402; cell-free competition with fluorescently labeled control peptide, fluorescence polarization at 72 hours
Method: The cell-free class I HLA binding assay in use at Pure Protein, LLC allows for in vitro quantification of peptide-HLA binding affinity in a competition format. In this assay, a fluorescently labeled, high binding, control peptide is loaded onto 384-well ½-area plates along with unlabeled experimental peptides. To remove endogenous peptides and render the HLA A and B molecules receptive to binding, HLA is heated at 53°C for 15 minutes and immediately added to the assay. The mixture is then allowed to stand for three days. […] Binding of experimental peptides is expressed as the percent inhibition of the labeled control peptide (experimental fluorescence / control fluorescence, multiplied by 100). The percent inhibition values for each experimental peptide (across a range of molar concentrations) are used to calculate the concentration which inhibits 50% of the labeled control peptide’s specific binding. This value is referred to as the peptide’s IC50.

Structure (SMILES)	IC50
CC[C@H](C)[C@H](NC(=O)[C@H](CO)NC(=O)[C@H](CO)NC(=O)[C@H](CC(N)=O)NC(=O)[C@@H](NC(=O)[C@@H](NC(=O)[C@H](CC(N)=O)NC(=O)[C@H](Cc1ccccc1)NC(=O)[C@@H](N)C(C)C)C(C)C)C(C)C)C(=O)O [Cluster 377_3D7] (H-VFNVVNSSI-OH)	11.6 µM
CC[C@H](C)[C@H](NC(=O)[C@@H](N)CC(C)C)C(=O)N[C@@H](CCSC)C(=O)N[C@H](C(=O)N[C@@H](CC(C)C)C(=O)N[C@@H](CO)C(=O)N[C@@H](Cc1ccccc1)C(=O)N[C@@H](CC(C)C)C(=O)N[C@@H](Cc1ccccc1)C(=O)O)C(C)C [Cluster 387_3D7] (H-LIMVLSFLF-OH)	19.3 µM
